Where two headings read alike, the source gives them in different places.
Assays:
[1] = tested on: Platelet Activating Factor (PAF)-induced mortality; experiment: Inhibition of Platelet Activating Factor (PAF)-induced mortality; type: in vivo, mouse (male dd mice); conditions: Mus musculus, 2 h, oral, mice, one hour before PAF 40 μg/kg i.v., p<0.05 vs control, read-out: PAF-induced mortality inhibition, minimum effective dose (MED)
Experimental: The experiment was performed by a minor modification of method of Carlson et al. [Agents and Actions, 21, 379 (1987)]. Groups each consisting of 10 male dd mice (weighing 28 to 32 g) were used, and 100 mg/kg of test compound or a saline (control) was orally administrated. One hour after the administration of test compound, 40 μg/kg of PAF (manufactured by Avanti Polar Lipids Co., Ltd.) was intravenously administered. Two hours after PAF injection, the mortality rate of the animals was observed.

trachea = experiment: Passive Schultz-Dale reaction (bronchodilatory effects), relaxation of sensitized trachea strips; parameters: species or system guinea pig (Hartley male); conditions: Cavia porcellus; sensitized guinea pig trachea, EWA 1 μg/ml, 37° C.; read-out: Passive S-D reaction IC50 (concentration of 50% relaxation rate)
Experimental: Guinea pigs were passively sensitized as follows. […] After 24 hours, the guinea pigs were stunned and exsanguinated, and then trachea was excised. The zig-zag strips of the trachea were prepared by the method of Emmerson and Mackay [J. Pharm. […] After the contraction curves reached plateau the compounds were successively added in order to get cumulative concentration-relaxation curves.

[2] = Acute toxicity, minimum lethal dose (oral, mice); type: in vivo; conditions: male dd-mice, mortality observed for seven days
Experimental: The compounds were orally administrated to male dd-mice weighing 20±1 g. Minimum lethal dose (MLD) was determined by observing the mortality for seven days after the administration.

[3] = Diuretic activity (oral, urine collected for 6 hours); type: in vivo, rat (Wistar male rats); conditions: Rattus norvegicus, rats; for response vs control in vivo at 1.6 mg/kg: 1.6 mg/kg oral; for response vs control in vivo at 6.25 mg/kg: 6.25 mg/kg oral; for response vs control in vivo at 25 mg/kg: 25 mg/kg oral
Experimental: Wistar male rats weighing 150 to 300 g were used after they were fasted for 18 hours. A test compound or saline (control) was orally administered to rats and urine was collected for 6 hours. The test was performed using 3 groups per the test compound, and each group consists of 3 animals. The urine was metered by a measuring cylinder and electrolytes (Na^+ and K^+) in the urine were assayed with a flame photometer (model […] manufactured by Hitachi Ltd.). Parameters in Table 3 are all expressed by relative value for control.

[4] = tested on: Glycerol-induced Renal Deficient Model; experiment: Renal protecting activity (glycerol-induced renal deficient model): serum creatinine and urea nitrogen; type: in vivo, rat (Wistar male rats); conditions: 10 mg/kg intraperitoneal, rats, 24 hours after glycerol injection, own control beside each compound; for Creatinine in serum, glycerol treated, test compound administrated: normal control 0.50; for Urea nitrogen in serum, glycerol treated, test compound administrated: normal control 15.2
Experimental: It is well known that subcutaneous or intramuscular administration of glycerol to rat induce acute renal insufficiency characterized by renal tubular disturbance [Can J. Physiol.
Wistar male rats (fasted both food and water for 18 hours) were used. A test compound or saline (control) was intraperitoneally administered (dose: 10 mg/kg) to rats. After 30 minutes rats were anesthesized with ether and the back skin was picked up and 0.8 ml/100 g of 50% glycerol was subcutaneously administered. 24 hours after the glycerol injection, the rats were anesthesized with ether and 5 ml of the blood was collected from the descending aorta. To obtain the serum, after allowing it to stand for 30 minutes or longer, the blood sample was centrifuged at 3000 rpm for 10 minutes. Creatinine in the serum sample was determined using autoanalyzer (AU510, Olympus) or clinical analysis kit of creatinine (Creatinine Test Wako; by Wako Pure Chemical Ind., Japan). Urea nitrogen in the serum was determined using autoanalyzer (AU510; made by Olympus Optical Co., Ltd, Japan) or clinical analysis kit of urea nitrogen (Urea nitrogen test wako; by Wako Pure Chemical Ind., Japan).

[5] = relative value for control (1.00), read-out: Na+/K+
[6] = relative value for control, read-out: Excretion of K+
[7] = relative value for control, read-out: Excretion of Na+
[8] = relative value for control, read-out: Urine volume

Compound | minimal effective dose [1] [mg/kg] | IC50 (trachea) [µM] | Minimum lethal dose (MLD) [2] [mg/kg] | Creatinine in serum, glycerol treated, test compound administrated [4] [mg/dL] | Urea nitrogen in serum, glycerol treated, test compound administrated [4] [mg/dL] | response vs control in vivo at 25 mg/kg [3, 5] [%] | response vs control in vivo at 25 mg/kg [3, 6] [%] | response vs control in vivo at 25 mg/kg [3, 7] [%] | response vs control in vivo at 25 mg/kg [3, 8] [%] | other results
O=C1N2CCN=C2c2[nH]cnc2N1Cc1ccccc1 [Compound 9, 4-Benzyl-1,4,7,8-tetrahydro-5H-imidazo[2,1-i]purin-5-one] | 100 | > 40 |  |  |  |  |  |  |  | 
CCCN1C(=O)N2CC(Cc3ccccc3)N=C2c2[nH]c(C3CCCC3)nc21 (centres unmarked) [12 Sa] |  |  | > 300 |  |  |  |  |  |  | response vs control in vivo at 1.6 mg/kg [3, 5]: 152%; response vs control in vivo at 1.6 mg/kg [3, 6]: 33%; response vs control in vivo at 1.6 mg/kg [3, 7]: 102%; response vs control in vivo at 1.6 mg/kg [3, 8]: 159%
CCCC1CN2C(=O)N(CCC)c3nc(C4CCCC4)[nH]c3C2=N1 (centres unmarked) [17 Sa] |  |  | > 300 | 2.35 ± 0.11 | 88.0 ± 4.9 |  |  |  |  | response vs control in vivo at 6.25 mg/kg [3, 5]: 291%; response vs control in vivo at 6.25 mg/kg [3, 6]: 18%; response vs control in vivo at 6.25 mg/kg [3, 7]: 158%; response vs control in vivo at 6.25 mg/kg [3, 8]: 138%
CCCN1C(=O)N2CCN=C2c2c1nc(C1CCCC1)n2C [Compound 7, 2-Cyclopentyl-1-methyl-4-n-propyl-1,4,7,8-tetrahydro-5H-imidazo[2,1-i]purin-5-one] | > 100 | 8.1 |  | 1.70 ± 0.17 | 64.3 ± 7.1 | 137 | 56 | 114 | 128 | 
CCCN1C(=O)N2C(=NCC2c2ccccc2)c2[nH]c(C3CCCC3)nc21 (centres unmarked) [11 Sa] |  |  | > 300 |  |  |  |  |  |  | 
CCCN1C(=O)N2C(=NCC2C)c2[nH]c(C3CCCC3)nc21 (centres unmarked) [19 Sa] |  |  | > 300 |  |  | 143 | 31 | 87 | 111 | 
Cn1cnc2nc3n(c(=O)c21)CCCC3 [Compound 25, 1-Methyl-1,5,6,7,8,10-hexahydropyrido[1,2-a]purin-10-one] |  |  | > 300 |  |  |  |  |  |  | 
NS(=O)(=O)c1cc(C(=O)O)c(NCc2ccco2)cc1Cl [Furosemide, reference compound] |  |  |  | 4.17 ± 0.41 | 150.3 ± 13.7 | 107 |  |  | 75 | 
CCCN1C(=O)N2CCN=C2c2c1ncn2C [Compound 1, 1-Methyl-4-n-propyl-1,4,7,8-tetrahydro-5H-imidazo[2,1-i]purin-5-one] | > 100 | 0.003 | > 300 | 1.94 ± 0.16 |  |  |  |  |  | 
CCCN1C(=O)N2CC(C)N=C2c2[nH]c(C3CCCC3)nc21 (centres unmarked) [16 Sa] |  |  |  | 2.38 ± 0.24 | 80.9 ± 9.5 |  |  |  |  | response vs control in vivo at 1.6 mg/kg [3, 5]: 152%; response vs control in vivo at 1.6 mg/kg [3, 6]: 31%; response vs control in vivo at 1.6 mg/kg [3, 7]: 99%; response vs control in vivo at 1.6 mg/kg [3, 8]: 80%
CCCN1C(=O)N2CC(CC)N=C2c2[nH]c(C3CCCC3)nc21 (centres unmarked) [Compound 8, 2-Cyclopentyl-8-ethyl-4-n-propyl-1,4,7,8-tetrahydro-5H-imidazo[2,1-i]purin-5-one] |  | 72 |  | 3.17 ± 0.32 | 121.2 ± 9.0 |  |  |  |  | response vs control in vivo at 6.25 mg/kg [3, 5]: 145%; response vs control in vivo at 6.25 mg/kg [3, 6]: 1%; response vs control in vivo at 6.25 mg/kg [3, 7]: 46%; response vs control in vivo at 6.25 mg/kg [3, 8]: 42%
CCCN1C(=O)N2CC(CC)N=C2c2c1ncn2C (centres unmarked) [Compound 4, 8-Ethyl-1-methyl-4-n-propyl-1,4,7,8-tetrahydro-5H-imidazo[2,1-i]purin-5-one] | > 100 | 0.036 | > 300 |  |  |  |  |  |  | 
O=C1N2CCN=C2c2[nH]cnc2N1Cc1ccccc1 [9 Sa] |  |  | > 300 |  |  | 126 | 31 | 65 | 88 | 
CCCN1C(=O)N2CC(c3ccccc3)N=C2c2[nH]c(C3CCCC3)nc21 (centres unmarked) [15 Sa] | 100 | > 40 | > 300 | 2.34 ± 0.12 | 101.8 ± 11.8 | 151 | 26 | 90 | 95 | response vs control in vivo at 6.25 mg/kg [3, 5]: 232%; response vs control in vivo at 6.25 mg/kg [3, 6]: 9%; response vs control in vivo at 6.25 mg/kg [3, 7]: 153%; response vs control in vivo at 6.25 mg/kg [3, 8]: 137%
O=c1c2[nH]cnc2nc2n1CCCC2 [Compound 24, 1,5,6,7,8,10-Hexahydropyrido[1,2-a]purin-10-one] |  |  | > 300 |  |  |  |  |  |  | 
Cn1c(=O)c2[nH]cnc2n(C)c1=O [Aminophylline, reference compound] |  |  |  | 1.72 ± 0.07 | 30.6 ± 2.0 |  |  |  |  | 
CCCN1C(=O)N2CCN=C2c2[nH]c(C3CCCC3)nc21 [Compound 6, 2-Cyclopentyl-4-n-propyl-1,4,7,8-tetrahydro-5H-imidazo[2,1-i]purin-5-one] | 50 | > 40 |  | 1.81 ± 0.12 |  |  |  |  |  | response vs control in vivo at 1.6 mg/kg [3, 5]: 155%; response vs control in vivo at 1.6 mg/kg [3, 6]: 30%; response vs control in vivo at 1.6 mg/kg [3, 7]: 102%; response vs control in vivo at 1.6 mg/kg [3, 8]: 121%
CCCN1C(=O)N2C(=NCC2CC)c2[nH]c(C3CCCC3)nc21 (centres unmarked) [18 Sa] |  |  | > 300 | 2.85 ± 0.33 | 101.2 ± 9.9 | 120 | 37 | 65 | 92 | 
CCCN1C(=O)N2CC(C)(C)N=C2c2[nH]c(C3CCCC3)nc21 [14 Sa] | 100 | 11 | > 300 | 2.62 ± 0.40 | 94.8 ± 14.3 | 200 | 31 | 162 | 145 | response vs control in vivo at 6.25 mg/kg [3, 5]: 123%; response vs control in vivo at 6.25 mg/kg [3, 6]: 43%; response vs control in vivo at 6.25 mg/kg [3, 7]: 75%; response vs control in vivo at 6.25 mg/kg [3, 8]: 113%

From patent US5270316A, “Condensed purine derivatives” (Kyowa Hakko Kogyo Co., Ltd., priority 1989, dated 1993)
